# Test results as given in patent US11667630B2, “Nitrogen-containing 6-membered cyclic compound” (Asahi Kasei Pharma Corporation, priority 2017, dated 2023).
# How the values were obtained:
# [1] = target: T1, human EP3 receptor (Homo sapiens, UniProt P43115); assay: Receptor binding test, [3H]PGE2 binding inhibition, EP3; details: [3H]PGE2 1.54 nmol/L, membrane fraction HTS092M, 25°C 60 minutes
# T1 construct: purchased Merck Millipore HTS092M
# T1 sequence (P43115 1-390): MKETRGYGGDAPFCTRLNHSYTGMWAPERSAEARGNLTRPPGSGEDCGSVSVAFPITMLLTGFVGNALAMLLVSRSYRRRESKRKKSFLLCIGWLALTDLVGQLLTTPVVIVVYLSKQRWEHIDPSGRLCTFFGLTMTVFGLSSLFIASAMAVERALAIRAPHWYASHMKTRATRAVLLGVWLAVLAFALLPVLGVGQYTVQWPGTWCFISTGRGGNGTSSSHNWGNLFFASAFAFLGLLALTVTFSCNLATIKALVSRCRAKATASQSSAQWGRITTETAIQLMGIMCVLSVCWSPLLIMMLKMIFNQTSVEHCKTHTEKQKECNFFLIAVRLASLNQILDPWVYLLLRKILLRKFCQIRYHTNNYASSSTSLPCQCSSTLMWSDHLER
# Experimental: (§1) In order to evaluate selectivity to each EP receptor subtype, [^3H]PGE2 binding-inhibition activities of test compounds for cell membranes on which human EP2, human EP3, and human EP4 receptors were stably expressed were measured.
# (§2) As the membrane fractions of the prostaglandin E receptors EP2, EP3, and EP4, 10.0 μg protein/tube each of HTS185M, HTS092M, and HTS142M of Merck Millipore were used, respectively. Each membrane fraction was incubated with a reaction mixture (250 μL/tube) containing a test compound and [3H]PGE2 at 25° C. for 60 minutes. […] After the reaction, the membrane fraction was collected on filter paper by using a cell harvester, the filter paper was transferred to a measurement vial, and the measurement was performed on a liquid scintillation counter.
# (§3) The nonspecific binding was determined as binding observed in the presence of excess amount (10 μM) of unlabeled PGE2. The measurement of the [3H]PGE2 binding-inhibiting activity of a test compound was performed by adding the test compound at various concentrations. The following buffers were used for the reaction.
# Buffer for EP3: 50 mmol/L Tris-HCl buffer containing 10 mmol/L MgCl2, and 1 mmol/L EDTA
# [2] = target: T2, human EP4 receptor (Homo sapiens, UniProt P35408); assay: Receptor binding test, [3H]PGE2 binding inhibition, EP4; parameters: purchased Merck Millipore HTS142M; details: [3H]PGE2 1.24 nmol/L, membrane fraction HTS142M, 25°C 60 minutes
# T2 sequence (P35408 whole entry): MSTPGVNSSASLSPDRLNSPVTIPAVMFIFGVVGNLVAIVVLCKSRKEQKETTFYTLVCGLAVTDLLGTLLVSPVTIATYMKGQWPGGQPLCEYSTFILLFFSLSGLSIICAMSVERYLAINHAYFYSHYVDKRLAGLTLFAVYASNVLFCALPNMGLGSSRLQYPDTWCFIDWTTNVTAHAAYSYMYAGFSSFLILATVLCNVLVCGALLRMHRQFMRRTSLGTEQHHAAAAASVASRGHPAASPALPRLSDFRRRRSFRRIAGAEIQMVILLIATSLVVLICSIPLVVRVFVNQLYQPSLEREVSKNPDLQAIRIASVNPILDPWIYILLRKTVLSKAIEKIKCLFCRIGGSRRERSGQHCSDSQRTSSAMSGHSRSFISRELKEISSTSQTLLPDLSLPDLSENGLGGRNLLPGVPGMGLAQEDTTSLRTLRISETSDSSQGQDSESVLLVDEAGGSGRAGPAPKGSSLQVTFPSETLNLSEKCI
# Experimental: as §1, §2, §3
# Buffer for EP4: 50 mmol/L HEPES-NaOH (pH7.4) containing 5 mmol/L MgCl2, 1 mmol/L CaCl2), and 0.2% BSA
# [3] = target: T3, human EP2 receptor (Homo sapiens, UniProt P43116); assay: Receptor binding test, [3H]PGE2 binding inhibition, EP2; details: [3H]PGE2 2.56 nmol/L, membrane fraction HTS185M, 25°C 60 minutes
# T3 construct: purchased Merck Millipore HTS185M
# T3 sequence (P43116 whole entry): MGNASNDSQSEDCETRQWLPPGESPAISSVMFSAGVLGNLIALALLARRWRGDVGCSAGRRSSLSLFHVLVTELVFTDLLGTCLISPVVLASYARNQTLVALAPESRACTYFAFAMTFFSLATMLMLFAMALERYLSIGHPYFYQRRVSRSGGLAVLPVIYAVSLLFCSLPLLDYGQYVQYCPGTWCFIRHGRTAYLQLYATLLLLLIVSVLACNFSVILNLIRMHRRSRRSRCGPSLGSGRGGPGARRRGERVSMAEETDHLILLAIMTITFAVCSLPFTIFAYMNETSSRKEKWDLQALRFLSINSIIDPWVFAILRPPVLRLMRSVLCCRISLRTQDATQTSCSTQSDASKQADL
# Experimental: as §1, §2, §3
# Buffer for EP2: 50 mmol/L HEPES-NaOH (pH 7.4) containing 5 mmol/L MgCl2, 1 mmol/L CaCl2), and 0.2% BSA
# [4] = target: T2, human EP4 receptor; assay: Measurement of EP4 agonist activity (cAMP production); type: cell-based; parameters: expressed in transfected cells; host or cells: HEK293; details: cAMP production in HEK293 cells stably expressing human EP4 receptor; average values where measured two or more times
# Experimental: In order to investigate EP4 receptor agonist activity of the compounds of the present invention, production of cAMP was measured in HEK293 cells that were made to stably express the human EP4 receptor.
# By using Refseq Database, prostaglandin E receptor was searched for. As a result, gene information of human EP4 (NM_000958) receptor was obtained. On the basis of this sequence information, the human EP4 receptor gene was cloned by PCR in a conventional manner using human cDNA as the template, and HEK293 cells that were made to stably express the human EP4 receptor were established. When cryopreserved cells of this strain were thawed and used, cells subcultured three times or more within a certain period of time (about 1 to 2 weeks) by using Dulbecco's Modified Eagle's Medium (Dulbecco's Modified Eagle's Medium may be henceforth abbreviated as DMEM) containing 10% FBS, 50 units each of penicillin and streptomycin were used. The subcultured cells were inoculated in wells of a poly-D-lysine-coated 96-well plate at a density of 2×10^4 to 2.5×10^4 cells/well, and cultured for one day. The medium in the wells was removed by suction, then DMEM (80 μL) was added to each well, and incubation was performed at 37° C. for 15 minutes. […] The reaction was allowed at 37° C. for 30 minutes, then the medium was removed by suction, Assay/Lysis Buffer (100 μL) contained in cAMP Screen Kit (produced by Applied Biosystems) was added to terminate the reaction. Then, the reaction mixture was incubated at 37° C. for 30 minutes to prepare a sample for quantification of cAMP, and the amount of cAMP in the sample was quantified according to the method indicated in cAMP Screen Kit. By non-linear regression of the compound concentration and the amount of cAMP, the concentration of the compound required for increasing cAMP to 50% of the maximum increase (EC50 value) was calculated by using the Kaleida Graph.
# [5] = system: rat femur; assay: Neo-osteogenesis action in rat femur; type: in vivo; details: female SD rats, one week after administration; for Bone mineral content of femur 1/3 center region (mg) Left femur (administered with compound): 100 μg test compound in in situ-solidified gel solution injected between quadriceps and periosteum; for Bone mineral content of femur 1/3 center region (mg) Right femur (no administration of compound): contralateral femur, 100 μg test compound given at left femur
# Experimental: Eight weeks old female SD rats (Charles River Japan) were fixed in the side lying position under triple anesthesia (medetomidine hydrochloride, midazolam, and butorphanol tartrate). After hair of the left femoral region was shaved with a hair clipper, and disinfection treatment was performed with 70% ethanol, an in situ-solidified gel solution of a test compound, specifically, a test compound dissolved in poly(lactic-co-glycolic acid) (RESOMER RG502H, produced by Evonik Industries)/poly(lactic-co-glycolic acid)-polyethylene glycol block copolymer (5050 DLG mPEG 5000, produced by Lakeshore Biomaterials)/N-methyl-2-pyrroridone (produced by Wako) (weight ratio 47%/3%/50%), was filled in a 1-mL syringe, a 21G injection needle was attached to the syringe, and the needle was transdermally stabbed from the quadriceps to the periosteum near the center of the femoral diaphyseal. Then, 100 μg as the amount of the test compound, or 50 μL as the administration volume of the solution was injected between the quadriceps and the periosteum, and the injection needle was drawn out. To the rats of the control group, the aforementioned in situ-solidified gel solution alone was administered. One week after the administration of the drug solution, the triple anesthesia was given to the animals, and they were fixed in the supine position, and euthanized by bleeding. […], circumferential tissues such as muscles were removed, the bone mineral content of the whole femur was measured by using a bone mineral analyzer DCS-600EX (produced by ALOKA), then it was divided into three portions along the long axis, and the bone mineral content of the center part (diaphysis) was evaluated. The test was performed with the groups each consisting of 6 animals.
SMILES,IC50 [1] [nM],IC50 [2] [nM],IC50 [3] [nM],EC50 [4] [nM],Bone mineral content of femur 1/3 center region (mg) Left femur (administered with compound) [5] [mg],Bone mineral content of femur 1/3 center region (mg) Right femur (no administration of compound) [5] [mg]
"O=C(O)c1ccc(CCN2C(=O)SCCN2CCC(O)Cc2cccc(C#Cc3cccs3)c2)s1 (stereo not drawn) [Example 3, 5-(2-(4-(3-Hydroxy-4-(3-(thiophen-2-ylethynyl)phenyl)butyl)-2-oxo-1,3,4-thiadiazinan-3-yl)ethyl)thiophene-2-carboxylic acid]",,,,0.13,80.2 ± 2.6,66.7 ± 2.7
"O=C(O)c1ccc(CCN2C(=O)SCCN2CCC(O)Cc2cccc(C#Cc3ccoc3)c2)s1 (stereo not drawn) [Example 10, 5-(2-(4-(4-(3-(Furan-3-ylethynyl)phenyl)-3-hydroxybutyl)-2-oxo-1,3,4-thiadiazinan-3-yl)ethyl)thiophene-2-carboxylic acid]",,,,0.065,78.0 ± 1.5,61.1 ± 0.5
"Cc1cc(C#Cc2ccsc2)cc(CC(O)CCN2CCSC(=O)N2CCc2ccc(C(=O)O)s2)c1 (stereo not drawn) [Example 19, 5-(2-(4-(3-Hydroxy-4-(3-methyl-5-(thiophen-3-ylethynyl)phenyl)butyl)-2-oxo-1,3,4-thiadiazinan-3-yl)ethyl)thiophene-2-carboxylic acid]",,,,0.1,85.8 ± 2.3,59.6 ± 1.4
"O=C(O)c1ccc(CCN2C(=O)SCCN2CCC(O)Cc2ccc(F)c(C#Cc3ccsc3)c2)s1 (stereo not drawn) [Example 20, 5-(2-(4-(4-(4-Fluoro-3-(thiophen-3-ylethynyl)phenyl)-3-hydroxybutyl)-2-oxo-1,3,4-thiadiazinan-3-yl)ethyl)thiophene-2-carboxylic acid]",,,,0.07,79.4 ± 5.2,58.7 ± 3.6

# Continued, in another order:
IC50 [1] [nM],IC50 [2] [nM],IC50 [3] [nM],EC50 [4] [nM],SMILES,Bone mineral content of femur 1/3 center region (mg) Left femur (administered with compound) [5] [mg],Bone mineral content of femur 1/3 center region (mg) Right femur (no administration of compound) [5] [mg]
> 1000,16.2,> 1000,0.17,"O=C(O)c1ccc(CCN2C(=O)SCCN2CC[C@@H](O)Cc2cccc(C#Cc3ccoc3)c2)s1 [Example 26, (S)-5-(2-(4-(4-(3-(Furan-3-ylethynyl)phenyl)-3-hydroxybutyl)-2-oxo-1,3,4-thiadiazinan-3-yl)ethyl)thiophene-2-carboxylic acid]",87.0 ± 1.6,65.9 ± 1.2
,,,0.055,"O=C(O)c1ccc(CCN2C(=O)SCCN2CCC(O)Cc2cc(C#Cc3ccsc3)cs2)s1 (stereo not drawn) [Example 22, 5-(2-(4-(3-Hydroxy-4-(4-(thiophen-3-ylethynyl)thiophen-2-yl)butyl)-2-oxo-1,3,4-thiadiazinan-3-yl)ethyl)thiophene-2-carboxylic acid]",79.5 ± 1.9,60.3 ± 2.7
> 1000,10.9,> 1000,0.095,"O=C(O)c1ccc(CCN2C(=O)SCCN2CC[C@@H](O)Cc2cccc(C#Cc3cscn3)c2)s1 [Example 25, (S)-5-(2-(4-(3-Hydroxy-4-(3-(thiazol-4-ylethynyl)phenyl)butyl)-2-oxo-1,3,4-thiadiazinan-3-yl)ethyl)thiophene-2-carboxylic acid]",79.1 ± 4.0,61.0 ± 2.1
